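Method: 48-hour compound exposure of cells in 96-well plates, five concentrations, linear interpolation of endpoints. Abbreviation: GI50, concentration required for 50% inhibition of growth.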 Active and inactive are the calls of the source. Rule as the data show it: active = GI50 up to about 1.1 µM and inactive = higher.
Columns and labels:
Assay in all cases: growth of human tumour cells (NCI), 48 h
[1] = test system: A549
[2] = test system: HCC 2998
[3] = test system: NCI-H226
[4] = test system: M14
[5] = test system: U-251
[6] = test system: COLO 205
[7] = test system: RPMI-8226
[8] = test system: SK-MEL-28
[9] = test system: HCT-116
[10] = test system: ACHN
[11] = test system: SF-268
[12] = test system: CCRF-CEM
[13] = test system: NCI-H460
[14] = test system: 786-0
[15] = test system: HL-60

Measured: GI50

Nc1c2ccccc2nc2c(C(=O)Nc3ccc(S(N)(=O)=O)cc3)cccc12
inactive: [1] > 100 µM | [2] > 100 µM | [3] 84.3 µM | [4] > 100 µM | [5] 49 µM | [6] > 100 µM | [7] 33.1 µM | [8] > 100 µM | [9] 67.5 µM | [10] > 100 µM | [11] 42.3 µM | [12] 12.5 µM | [13] > 100 µM | [14] > 100 µM

CC(=O)O[C@@]1(C)[C@@H](C)C(=O)O[C@@H]2CCN3CC=C(COC(=O)[C@]1(C)O)[C@H]23
inactive: [1] > 100 µM | [2] > 100 µM | [3] > 100 µM | [4] > 100 µM | [5] > 100 µM | [15] > 100 µM | [6] > 100 µM | [7] > 100 µM | [8] > 100 µM | [9] > 100 µM | [10] > 100 µM | [11] > 100 µM | [12] > 100 µM | [13] > 100 µM | [14] > 100 µM

O=C1C[C@H]2CCCN2[C@@H](c2ccccc2)C1
inactive: [1] > 100 µM | [2] > 100 µM | [3] > 100 µM | [4] > 100 µM | [5] > 100 µM | [15] > 100 µM | [6] > 100 µM | [7] > 100 µM | [8] > 100 µM | [9] > 100 µM | [10] > 100 µM | [11] > 100 µM | [12] > 100 µM | [13] > 100 µM | [14] > 100 µM

COc1ccccc1NC(=O)CC(=O)N1N=C(c2ccccc2)C(/N=N/c2ccc(Cl)cc2)C1=O (stereo not drawn)
inactive: [1] 25.1 µM | [2] 45.6 µM | [3] 27.5 µM | [4] 59.8 µM | [5] 30.9 µM | [15] 52 µM | [6] 71.4 µM | [7] > 100 µM | [8] 37 µM | [9] 30.1 µM | [10] 19.2 µM | [11] 50.2 µM | [13] 34.8 µM | [14] 13.9 µM

Cc1nc2sccn2c1C(=O)NC(=O)Nc1ccc(Cl)cc1
inactive: [1] 57.4 µM | [2] > 100 µM | [3] 71.9 µM | [4] > 100 µM | [5] 50.5 µM | [15] > 100 µM | [6] > 100 µM | [7] > 100 µM | [8] > 100 µM | [9] 46.2 µM | [10] > 100 µM | [11] 39.6 µM | [12] > 100 µM | [13] > 100 µM | [14] 48.2 µM

CCc1ccccc1NC(=O)/C(=N/O)C(C)=O
inactive: [1] > 100 µM | [2] > 100 µM | [3] 62.1 µM | [4] > 100 µM | [5] > 100 µM | [15] > 100 µM | [6] > 100 µM | [7] > 100 µM | [8] > 100 µM | [9] > 100 µM | [10] > 100 µM | [11] > 100 µM | [12] > 100 µM | [13] > 100 µM | [14] > 100 µM

COc1cc(CCCC(O)COc2cccc3c2C2(O)CCCCCC32)cc(OC)c1 (stereo not drawn)
inactive: [1] 16.1 µM | [2] 4.97 µM | [3] 16.2 µM | [4] 17.5 µM | [5] 18.9 µM | [15] 22.2 µM | [6] 2.53 µM | [7] 18.5 µM | [8] 17 µM | [9] 17.7 µM | [10] 15.7 µM | [11] 17.9 µM | [12] 25.8 µM | [13] 17.6 µM | [14] 15.1 µM

CCOC(=N)CC(=O)Nc1cccc(Cl)c1
inactive: [1] > 100 µM | [2] 67 µM | [3] > 100 µM | [4] > 100 µM | [5] > 100 µM | [15] > 100 µM | [6] > 100 µM | [8] > 100 µM | [9] > 100 µM | [10] > 100 µM | [11] > 100 µM | [12] > 100 µM | [13] > 100 µM | [14] > 100 µM

CN(CN1C(=O)C2Cc3ccccc3CN2C1=O)c1ccccn1 (stereo not drawn)
inactive: [1] > 100 µM | [2] > 100 µM | [3] > 100 µM | [4] > 100 µM | [5] > 100 µM | [15] > 100 µM | [6] > 100 µM | [7] > 100 µM | [8] > 100 µM | [10] > 100 µM | [11] > 100 µM | [12] > 100 µM | [13] > 100 µM | [14] > 100 µM

COc1ccc(/C=C(/C(=O)O)c2cc(OC)c(OC)c(OC)c2)cc1
inactive: [1] 56.1 µM | [2] > 100 µM | [3] 44.8 µM | [4] 24.2 µM | [5] 35.2 µM | [6] 33.3 µM | [7] 33.8 µM | [8] 61.9 µM | [9] 53.3 µM | [10] > 100 µM | [11] 70.1 µM | [12] 43.1 µM | [13] 48.1 µM | [14] 41.3 µM

NC(=O)C(c1ccccc1)N1CCOCC1 (stereo not drawn)
inactive: [1] > 100 µM | [3] > 100 µM | [4] > 100 µM | [5] > 100 µM | [15] > 100 µM | [6] > 100 µM | [7] > 100 µM | [8] > 100 µM | [9] > 100 µM | [10] > 100 µM | [11] > 100 µM | [12] > 100 µM | [13] > 100 µM | [14] > 100 µM

N=C(c1ccccc1)N(c1ccccc1)c1ccccc1
inactive: [1] > 100 µM | [2] > 100 µM | [3] 23.1 µM | [4] > 100 µM | [5] > 100 µM | [15] 20.8 µM | [6] 19.2 µM | [8] > 100 µM | [9] 40.5 µM | [11] 48.6 µM | [13] 87.5 µM | [14] 28.1 µM

COc1cc2c(cn1)[nH]c1ccccc12
inactive: [1] > 100 µM | [2] > 100 µM | [3] > 100 µM | [4] > 100 µM | [5] > 100 µM | [15] > 100 µM | [6] > 100 µM | [7] > 100 µM | [8] 67.5 µM | [9] > 100 µM | [10] > 100 µM | [11] 88.1 µM | [12] > 100 µM | [13] > 100 µM | [14] > 100 µM

CC1=C(C(=O)Nc2ccccc2C)C(c2ccccc2)C(C(=O)Nc2ccccc2C)=C(C)N1
inactive: [1] 59 µM | [2] 32.4 µM | [3] > 100 µM | [4] 39.4 µM | [5] 37.2 µM | [15] 15.2 µM | [6] 24.1 µM | [8] > 100 µM | [9] 24.3 µM | [10] 26.3 µM | [11] > 100 µM | [12] 20.9 µM | [13] 33.6 µM | [14] 68.9 µM

O=C(Cc1nc2ccccc2s1)C(=O)Nc1cccc(Cl)c1
inactive: [1] > 100 µM | [2] > 100 µM | [3] > 100 µM | [4] > 100 µM | [5] > 100 µM | [15] > 100 µM | [6] > 100 µM | [7] > 100 µM | [8] > 100 µM | [9] > 100 µM | [10] > 100 µM | [11] > 100 µM | [12] > 100 µM | [14] > 100 µM

O=CC1=CCCC2(C1)OCCO2
inactive: [1] > 100 µM | [2] > 100 µM | [4] > 100 µM | [5] > 100 µM | [15] > 100 µM | [6] > 100 µM | [7] > 100 µM | [8] > 100 µM | [9] > 100 µM | [11] > 100 µM | [12] > 100 µM | [13] > 100 µM | [14] > 100 µM

CC1(C)N=C(c2ccccn2)C(c2ccccn2)=NC1(C)C
inactive: [1] > 100 µM | [2] > 100 µM | [3] > 100 µM | [4] > 100 µM | [5] > 100 µM | [15] > 100 µM | [6] > 100 µM | [7] > 100 µM | [9] > 100 µM | [10] > 100 µM | [11] > 100 µM | [12] > 100 µM | [13] > 100 µM | [14] > 100 µM

CC1CCCP(=O)(c2ccccc2)CCC1 (stereo not drawn)
inactive: [1] > 100 µM | [2] > 100 µM | [4] > 100 µM | [5] > 100 µM | [15] > 100 µM | [6] > 100 µM | [7] > 100 µM | [8] > 100 µM | [10] > 100 µM | [11] > 100 µM | [12] > 100 µM | [13] > 100 µM | [14] > 100 µM

COc1cccc(NC(=O)CC(=O)N2NC(C)C(/N=N/c3cccc(C(=O)O)c3)C2=O)c1 (stereo not drawn)
inactive: [1] > 100 µM | [2] > 100 µM | [3] > 100 µM | [4] > 100 µM | [5] > 100 µM | [6] > 100 µM | [7] > 100 µM | [8] > 100 µM | [9] > 100 µM | [10] > 100 µM | [11] > 100 µM | [12] > 100 µM | [13] > 100 µM | [14] > 100 µM

From ChEMBL document CHEMBL1201862, “PubChem BioAssay data set” (2004)
